Laboratory results as given in patent US20180370927A1, “MICROBIOCIDAL OXADIAZOLE DERIVATIVES” (SYNGENTA PARTICIPATIONS AG, priority 2015, published 2018).
Read-outs that look alike come from different tables or passages of the source.

Legend:
[1] = system: Puccinia recondita f. Sp. Tritici; assay: Puccinia recondita f. sp. tritici / wheat / leaf disc curative (brown rust); format: in vivo; conditions: foliar, read-out: disease control compared to untreated control leaf disks
In short: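 Wheat cv. Kanzler leaf segments on agar were inoculated with spores, kept dark at 19° C, 75% RH, then sprayed with diluted formulated compound 1 day after inoculation (curative). Incubation continued at 19° C, 75% RH, 12 h light/12 h dark, with percent disease control versus untreated scored 6 to 8 days after application.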

[2] = system: Glomerella lacenarium (Colletotrichum lacenarium); assay: Glomerella lacenarium (Colletotrichum lacenarium) liquid culture / cucumber / preventative (anthracnose); format: cell-based; conditions: read-out: disease control (inhibition of growth, photometric) compared to untreated control
In short: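 Cryostored conidia in potato dextrose broth added to DMSO compound solution in microtiter plates, incubated at 24° C. Growth inhibition read photometrically 3 to 4 days after application, as percent control versus untreated check; compounds tested at 20 ppm.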

[3] = system: Phakopsora pachyrhizi; assay: Phakopsora pachyrhizi / soybean / leaf disc preventative (Asian soybean rust); format: in vivo; conditions: foliar, 200 ppm in the applied formulation, soybean leaf disks, assessed 12 to 14 days after application, read-out: disease control compared to untreated control leaf disks
In short: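 Soybean leaf discs on water agar were sprayed with formulated compound diluted in water, then inoculated one day later with spore suspension on the lower leaf surface. Held 24-36 h dark at 20° C., 75% RH, then 12 h light/day; percent disease control versus untreated scored 12 to 14 days after application.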

[4] = system: Puccinia recondita f. Sp. Tritici; assay: Puccinia recondita f. sp. tritici / wheat / leaf disc preventative (brown rust); format: in vivo; conditions: foliar, read-out: disease control compared to untreated control leaf disks
In short: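 Wheat cv. Kanzler leaf segments on agar sprayed with formulated compound in water, inoculated with rust spores 1 day later. Incubated at 19° C, 75% rh, 12 h light/12 h dark; percent disease control versus untreated scored 7 to 9 days after application; tested at 200 ppm.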

[5] = system: Uromyces viciae-Fabae; assay: Uromyces viciae-fabae / field bean / leaf disc preventative (faba-bean rust); format: in vivo; conditions: foliar, 288 h, 100 ppm in the applied formulation, field bean leaf discs, assessed 12 days after application, read-out: disease control compared to untreated control leaf discs
Method: Leaf disks or leaf segments of various plant species are cut from plants grown in a greenhouse. The cut leaf disks or segments are placed in multiwell plates (24-well format) onto water agar. The leaf disks are sprayed with a test solution before (preventative) or after (curative) inoculation. Compounds to be tested are prepared as DMSO solutions (max. 10 mg/mL) which are diluted to the appropriate concentration with 0.025% Tween20 just before spraying. The inoculated leaf disks or segments are incubated under defined conditions (temperature, relative humidity, light, etc.) according to the respective test system. A single evaluation of disease level is carried out 3 to 14 days after inoculation, depending on the pathosystem. Percent disease control relative to the untreated check leaf disks or segments is then calculated.
Example 5: Fungicidal Activity Against Uromyces viciae-Fabael Field Bean/Leaf Disc Preventative (Faba-Bean Rust)
Field bean leaf discs are placed on water agar in multiwell plates (96-well format) and 10 μL of the formulated test compound diluted in acetone and a spreader pipetted onto the leaf disc. Two hours after application leaf discs are inoculated by spraying a spore suspension on the lower leaf surface. The leaf discs are incubated in a climate cabinet at 22° C. with 18 hour days and 70% relative humidity. The activity of a compound is assessed as percent disease control compared to untreated when an appropriate level of disease damage appears in untreated check leaf disks (12 days after application).
The following compounds at 100 ppm in the applied formulation give at least 80% disease control in this test when compared to untreated control leaf discs under the same conditions, which show extensive disease development.

[6] = 200 ppm in the applied formulation, wheat leaf segments, curative (applied 1 day after inoculation), assessed 6 to 8 days after application
[7] = 20 ppm in the applied formulation, liquid culture in PDB, 24° C., 3 to 4 days after application
[8] = 200 ppm in the applied formulation, wheat leaf segments, preventative, assessed 7 to 9 days after application

| melting point [°C] | SMILES | pest or weed control at 200 ppm [1, 6] [%] | inhibition at 20 ppm [2, 7] [%] | pest or weed control at 200 ppm [3] [%] | pest or weed control at 200 ppm [4, 8] [%] | pest or weed control at 100 ppm [5] [%] | pest or weed control at 200 ppm [1] [%] | inhibition at 20 ppm [2] [%] | pest or weed control at 200 ppm [4] [%] |
| --- | --- | --- | --- | --- | --- | --- | --- | --- | --- |
| 120 to 125 | CN(Cc1ccc(-c2noc(C(F)(F)F)n2)cc1)C(=O)C(N)=O [Compound 4.30, N′-methyl-N′-[[4-[5-(trifluoromethyl)-1,2,4-oxadiazol-3-yl]phenyl]methyl] oxamide] | ≥ 80 | ≥ 80 | ≥ 80 | ≥ 80 | – | – | – | – |
| 126 to 130 | COCCNC(=O)C(=O)Nc1ccc(-c2noc(C(F)(F)F)n2)cc1C [Compound 4.38, N-(2-methoxyethyl)-N′-[2-methyl-4-[5-(trifluoromethyl)-1,2,4-oxadiazol-3-yl]phenyl] oxamide] | ≥ 80 | ≥ 80 | ≥ 80 | ≥ 80 | – | – | – | – |
| 162 to 173 | O=C(O)C(=O)NCc1ccc(-c2noc(C(F)(F)F)n2)cc1 [Compound 3.8, 2-oxo-2-[[4-[5-(trifluoromethyl)-1,2,4-oxadiazol-3-yl]phenyl]methylamino]acetic acid] | – | – | ≥ 80 | – | – | – | – | – |
| 79 to 89 | Cc1cc(-c2noc(C(F)(F)F)n2)ccc1NC(=O)C(=O)N(C)C [Compound 4.37, N′,N′-dimethyl-N-[2-methyl-4-[5-(trifluoromethyl)-1,2,4-oxadiazol-3-yl]phenyl]oxamide] | ≥ 80 | ≥ 80 | ≥ 80 | ≥ 80 | – | – | – | – |
| – | CON=C(C(=O)NCc1ccc(-c2noc(C(F)(F)F)n2)cc1)c1ccccc1 [Compound 2.2, 2-methoxyimino-2-phenyl-N-[[4-[5-(trifluoromethyl)-1,2,4-oxadiazol-3-yl]phenyl]methyl]acetamide] | – | ≥ 80 | – | ≥ 80 | ≥ 80 | – | – | – |
| 112 to 114 | CCOCCOC(=O)C(=O)NCc1ccc(-c2noc(C(F)(F)F)n2)cc1 [Compound 3.4, 2-ethoxyethyl 2-oxo-2-[[4-[5-(trifluoromethyl)-1,2,4-oxadiazol-3-yl]phenyl]methylamino]acetate] | – | ≥ 80 | – | ≥ 80 | – | – | – | – |
| – | CCCON(Cc1ccc(-c2noc(C(F)(F)F)n2)cc1)C(=O)C(N)=O [Compound 4.11, N′-propoxy-N′-[[4-[5-(trifluoromethyl)-1,2,4-oxadiazol-3-yl]phenyl]methyl] oxamide] | – | ≥ 80 | – | ≥ 80 | ≥ 80 | – | – | – |
| 104 to 108 | O=C(NCc1ccc(-c2noc(C(F)(F)F)n2)cc1)C(=O)N1CCCCC1 [Compound 4.40, 2-oxo-2-(1-piperidyl)-N-[[4-[5-(trifluoromethyl)-1,2,4-oxadiazol-3-yl]phenyl]methyl] acetamide] | ≥ 80 | ≥ 80 | ≥ 80 | ≥ 80 | – | – | – | – |
| – | O=C(Nc1ccc(-c2noc(C(F)(F)F)n2)cc1)C(=O)c1ccccc1 [Compound 1.1, 2-oxo-2-phenyl-N-[4-[5-(trifluoromethyl)-1,2,4-oxadiazol-3-yl]phenyl]acetamide] | – | – | – | – | ≥ 80 | – | – | – |
| 75.7 to 76.2 | CO/N=C(\C)C(=O)NCc1ccc(-c2noc(C(F)(F)F)n2)cc1 [Compound 2.9, (2E)-2-methoxyimino-N-[[4-[5-(trifluoromethyl)-1,2,4-oxadiazol-3-yl]phenyl]methyl] propanamide] | ≥ 80 | ≥ 80 | ≥ 80 | ≥ 80 | – | – | – | – |
| – | O=C(Nc1ccc(-c2noc(C(F)(F)F)n2)cc1)C(=O)c1cccc(F)c1 [Compound 1.2, 2-(3-fluorophenyl)-2-oxo-N-[4-[5-(trifluoromethyl)-1,2,4-oxadiazol-3-yl]phenyl]acetamide] | – | ≥ 80 | – | – | ≥ 80 | – | – | – |
| 123 to 125 | CON1CCC(N(C)C(=O)C(=O)NCc2ccc(-c3noc(C(F)(F)F)n3)cc2)CC1 [Compound 4.44, N′-(1-methoxy-4-piperidyl)-N′-methyl-N-[[4-[5-(trifluoromethyl)-1,2,4-oxadiazol-3-yl]phenyl]methyl] oxamide] | ≥ 80 | ≥ 80 | ≥ 80 | ≥ 80 | – | – | – | – |
| 87.7 to 88.8 | CNC(=O)C(=O)N(Cc1ccc(-c2noc(C(F)(F)F)n2)cc1)OC [Compound 4.35, N′-methoxy-N-methyl-N′-[[4-[5-(trifluoromethyl)-1,2,4-oxadiazol-3-yl]phenyl]methyl] oxamide] | ≥ 80 | ≥ 80 | ≥ 80 | ≥ 80 | – | – | – | – |
| 112 to 116 | CCOC(=O)C(=O)NCc1ccc(-c2noc(C(F)(F)F)n2)cc1 [Compound 3.9, ethyl 2-oxo-2-[[4-[5-(trifluoromethyl)-1,2,4-oxadiazol-3-yl]phenyl]methylamino] acetate] | – | ≥ 80 | ≥ 80 | ≥ 80 | – | – | – | – |
| 112 to 116 | CC1CCC(OC(=O)C(=O)NCc2ccc(-c3noc(C(F)(F)F)n3)cc2)C1 (centres unmarked) [Compound 3.5, (3-methylcyclopentyl) 2-oxo-2-[[4-[5-(trifluoromethyl)-1,2,4-oxadiazol-3-yl]phenyl]methylamino]acetate] | – | ≥ 80 | – | ≥ 80 | – | – | – | – |
| 102 to 105 | O=C(NCc1ccc(-c2noc(C(F)(F)F)n2)cc1)C(=O)OC1CCSC1 (centres unmarked) [Compound 3.6, tetrahydrothiophen-3-yl 2-oxo-2-[[4-[5-(trifluoromethyl)-1,2,4-oxadiazol-3-yl]phenyl]methylamino]acetate] | – | ≥ 80 | – | ≥ 80 | – | – | – | – |
| 75.8 to 77.5 | CC(=O)C(=O)NCc1ccc(-c2noc(C(F)(F)F)n2)cc1 [Compound 1.35, 2-oxo-N-[[4-[5-(trifluoromethyl)-1,2,4-oxadiazol-3-yl]phenyl]methyl]propanamide] | ≥ 80 | ≥ 80 | ≥ 80 | ≥ 80 | – | – | – | – |
| 184 to 186 | O=C(O)C(=O)Nc1ccc(-c2noc(C(F)(F)F)n2)cc1 [Compound 3.1, 2-oxo-2-[4-[5-(trifluoromethyl)-1,2,4-oxadiazol-3-yl]anilino]acetic acid] | – | – | – | – | ≥ 80 | – | – | – |
| – | CO/N=C(/C(=O)Nc1ccc(-c2noc(C(F)(F)F)n2)cc1)c1ccccc1 [Compound 2.1, (2E)-2-methoxyimino-2-phenyl-N-[4-[5-(trifluoromethyl)-1,2,4-oxadiazol-3-yl]phenyl]acetamide] | – | – | – | – | ≥ 80 | – | – | – |

| SMILES | melting point [°C] | pest or weed control at 200 ppm [1, 6] [%] | inhibition at 20 ppm [2, 7] [%] | pest or weed control at 200 ppm [3] [%] | pest or weed control at 200 ppm [4, 8] [%] | pest or weed control at 100 ppm [5] [%] | pest or weed control at 200 ppm [1] [%] | inhibition at 20 ppm [2] [%] | pest or weed control at 200 ppm [4] [%] |
| --- | --- | --- | --- | --- | --- | --- | --- | --- | --- |
| CO/N=C(\C#N)C(=O)N(Cc1ccc(-c2noc(C(F)(F)F)n2)cc1)OC [Compound 2.14, (1E)-N-methoxy-2-[methoxy-[[4-[5-(trifluoromethyl)-1,2,4-oxadiazol-3-yl]phenyl]methyl]amino]-2-oxo-acetimidoyl cyanide] | 67 to 68 | – | – | – | – | – | ≥ 80 | ≥ 80 | ≥ 80 |
